In PMC8036409 (Molecules, 2021):
Structures can show the parent of a compound that is named as a salt. Where two headings read alike, the source gives them in different places.

Columns and labels:
[1] = biological target: T1, butyrylcholinesterase (BChE) (Homo sapiens, UniProt P06276); test: Butyrylcholinesterase inhibition, Ellman's assay; type: biochemical; conditions: 62.5 μg/mL, n = 3; read-out: Percent BChE (Mean ± SEM), %inhibition
[2] = biological target: T1, butyrylcholinesterase (BChE); test: Butyrylcholinesterase inhibition, Ellman's assay; type: biochemical; conditions: for inhibition at 125 µg/mL / inhibition at 250 µg/mL / inhibition at 500 µg/mL / inhibition at 1000 µg/mL: read-out: Percent BChE (Mean ± SEM), %inhibition; for inhibition at 250 µg/mL: 250 μg/mL
Protocol: (§1) AChE and BChE were used as representative enzymes to determine the anticholinesterase effect of isolated compounds using Ellman’s assay with slight modifications. Sample stocks (5 mg/5 mL in methanol) were prepared and a range of serial dilutions (125, 250, 500, 1000 μg/mL) was made from each of them. Phosphate buffer (6.8 pH) was used for making the enzyme and substrate solutions.

[3] = biological target: T2, acetylcholinesterase (AChE) (Homo sapiens, UniProt P22303); test: biochemical; conditions: 62.5 μg/mL, n = 3; read-out: Percent AChE (Mean ± SEM), %inhibition
[4] = biological target: T2, acetylcholinesterase (AChE); test: biochemical; conditions: for inhibition at 250 µg/mL: 250 μg/mL; for inhibition at 500 µg/mL: 500 μg/mL; for inhibition at 1000 µg/mL: 1000 μg/mL; for IC50: read-out: AChE IC50 (converted)
Protocol: as §1

[5] = ABTS free radical scavenging assay; conditions: for ABTS Percent Inhibition (Mean ± S.E.M): n = 3
Protocol: (§2) The free radical scavenging capacity of the isolated compounds was determined using DPPH and ABTS assays. To prepare the DPPH stock solution, 30 mg of DPPH was dissolved in 100 mL of methanol. Likewise, to prepare ABTS stock solution, 383 mg of 7 mM ABTS and 66.2 mg of 2.45 mM K2S2O8 were taken, each of them was individually dissolved in 100 mL of methanol and mixed together thoroughly. For the free radical development, the solutions were kept in dark for one day. Different dilutions (62.5, 125, 250, 500, 1000 μg/mL) from each of the sample stock solutions (5 mg/5 mL of methanol) were prepared. Each of the dilutions (0.8 mL) was mixed with 0.8 mL of DPPH stock solution and incubated for 15 min and their absorbance was recorded at 515 nm. Likewise, 0.8 mL of each of the same dilutions was mixed with 2 mL of ABTS solution, incubated for 25 min and their absorbance was recorded at 745 nm. The percent scavenging potentials of compounds were calculated using the following equation:(1) Percent scavenging= A−B/A × 100, where A is the absorbance of oxidized stock (DPPH/ABTS) used as control, and B is the absorbance of the sample.

[6] = DPPH free radical scavenging assay; conditions: for DPPH Percent Inhibition (Mean ± S.E.M): n = 3
Protocol: as §2

α-amylase = test: α-Amylase inhibition assay (DNS method); type: biochemical; conditions: for Percent Inhibition of α-Amylase (Mean ± S.E.M): n = 3
Protocol: The degree of inhibition was assessed by quantifying maltose equivalents using a slightly modified dinitrosalicylic acid (DNS) method. From each of the sample dilutions, 1 mL was pre-incubated with 1 U/mL α-amylase for half an hour. After incubation, 1 mL of 1% of starch solution was added to the mixture and further incubated for 10 min. To stop the reaction, 1 mL DNS reagent was added to the reaction mixture and heated in a boiling water bath for 5 min. […] The absorbance was measured at 540 nm.

[7] = n = 3, read-out: Percent AChE (Mean ± SEM), %inhibition

T2 sequence (P22303 32-614, species assumed): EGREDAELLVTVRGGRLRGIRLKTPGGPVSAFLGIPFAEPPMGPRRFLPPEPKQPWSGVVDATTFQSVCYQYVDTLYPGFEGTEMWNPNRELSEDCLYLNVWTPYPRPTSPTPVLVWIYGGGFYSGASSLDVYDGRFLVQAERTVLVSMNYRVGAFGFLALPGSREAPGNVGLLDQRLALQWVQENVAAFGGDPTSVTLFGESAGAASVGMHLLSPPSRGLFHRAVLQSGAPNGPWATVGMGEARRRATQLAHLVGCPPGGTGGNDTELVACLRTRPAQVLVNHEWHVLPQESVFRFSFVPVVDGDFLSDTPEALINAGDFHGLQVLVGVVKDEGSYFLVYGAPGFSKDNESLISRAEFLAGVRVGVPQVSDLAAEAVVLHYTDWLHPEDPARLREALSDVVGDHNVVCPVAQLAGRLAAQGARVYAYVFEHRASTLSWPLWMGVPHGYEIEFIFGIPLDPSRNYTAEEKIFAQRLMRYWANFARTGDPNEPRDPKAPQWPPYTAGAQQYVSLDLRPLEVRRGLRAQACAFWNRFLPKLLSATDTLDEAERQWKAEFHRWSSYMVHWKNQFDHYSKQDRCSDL
T1 sequence (P06276 29-602, species assumed): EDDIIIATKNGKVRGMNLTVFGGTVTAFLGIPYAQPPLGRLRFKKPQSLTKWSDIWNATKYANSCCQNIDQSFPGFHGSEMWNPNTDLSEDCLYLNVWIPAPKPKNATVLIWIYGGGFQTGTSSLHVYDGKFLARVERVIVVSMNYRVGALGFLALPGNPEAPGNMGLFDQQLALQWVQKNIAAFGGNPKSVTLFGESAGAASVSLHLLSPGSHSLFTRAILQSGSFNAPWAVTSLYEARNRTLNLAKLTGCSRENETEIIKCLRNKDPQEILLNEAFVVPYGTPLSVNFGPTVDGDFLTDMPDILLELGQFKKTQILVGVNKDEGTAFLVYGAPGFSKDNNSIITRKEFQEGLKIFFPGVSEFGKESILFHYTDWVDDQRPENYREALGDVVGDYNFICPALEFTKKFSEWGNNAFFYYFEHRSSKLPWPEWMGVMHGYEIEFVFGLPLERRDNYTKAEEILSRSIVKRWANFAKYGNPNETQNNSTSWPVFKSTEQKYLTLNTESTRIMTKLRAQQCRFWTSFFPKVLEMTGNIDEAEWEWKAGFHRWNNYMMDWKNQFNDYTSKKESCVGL

Structure (SMILES) | inhibition at 62.5 µg/mL [1] [%] | IC50 [2] [µM] | inhibition at 125 µg/mL ([2]; 125 μg/mL, n = 3) [%] | inhibition at 250 µg/mL ([2]; n = 3) [%] | inhibition at 500 µg/mL ([2]; 500 μg/mL, n = 3) [%] | inhibition at 1000 µg/mL ([2]; 1000 μg/mL, n = 3) [%] | inhibition at 62.5 µg/mL [3] [%] | inhibition at 250 µg/mL [4, 7] [%] | inhibition at 500 µg/mL [4, 7] [%] | inhibition at 1000 µg/mL [4, 7] [%] | IC50 [4] [µM] | ABTS IC50 [5] [µg/mL] | ABTS Percent Inhibition (Mean ± S.E.M) ([5]; 62.5 μg/mL) [%] | ABTS Percent Inhibition (Mean ± S.E.M) ([5]; 125 μg/mL) [%] | ABTS Percent Inhibition (Mean ± S.E.M) ([5]; 250 μg/mL) [%] | ABTS Percent Inhibition (Mean ± S.E.M) ([5]; 500 μg/mL) [%] | ABTS Percent Inhibition (Mean ± S.E.M) ([5]; 1000 μg/mL) [%] | DPPH IC50 [6] [µg/mL] | DPPH Percent Inhibition (Mean ± S.E.M) ([6]; 62.5 μg/mL) [%] | DPPH Percent Inhibition (Mean ± S.E.M) ([6]; 125 μg/mL) [%] | further results
O=COC(O)O [Compound XI, methanetriol mano formate] | 48 ± 2.06 | 815 | 57.1 ± 1.31 | 63.7 ± 2.24 | 71.2 ± 1.31 | 81.3 ± 1.41 | 48.2 ± 3.34 | 64.5 ± 3.04 | 71.2 ± 2.42 | 81.4 ± 2.51 | 815 | 95 | 46.23 ± 1.49 | 54.30 ± 1.15 | 61.04 ± 2.38 | 70.15 ± 1.16 | 79.17 ± 0.53 | 95 | 46.22 ± 0.60 | 54.15 ± 1.28 | DPPH Percent Inhibition (Mean ± S.E.M) ([6]; 250 μg/mL): 62.13 ± 1.08%; DPPH Percent Inhibition (Mean ± S.E.M) ([6]; 500 μg/mL): 71.17 ± 2.14%; DPPH Percent Inhibition (Mean ± S.E.M) ([6]; 1000 μg/mL): 80.41 ± 2.16%; α-Amylase IC50 (α-amylase): 98 µg/mL; Percent Inhibition of α-Amylase (Mean ± S.E.M) (α-amylase; 62.5 μg/mL): 46.98 ± 2.49 %; Percent Inhibition of α-Amylase (Mean ± S.E.M) (α-amylase; 125 μg/mL): 54.13 ± 2.17 %; Percent Inhibition of α-Amylase (Mean ± S.E.M) (α-amylase; 250 μg/mL): 63.21 ± 1.69 %; Percent Inhibition of α-Amylase (Mean ± S.E.M) (α-amylase; 500 μg/mL): 70.91 ± 2.11 %; Percent Inhibition of α-Amylase (Mean ± S.E.M) (α-amylase; 1000 μg/mL): 81.90 ± 0.73 %
CC(C)C(C(=O)O)c1ccc(C(C(=O)O)C(C)C)cc1 (centres unmarked) [Compound XII] | 50.4 ± 1.11 | 216 | 64.4 ± 1.85 | 77.1 ± 2.26 | 85.1 ± 2.06 | 93.89 ± 0.81 | 52.5 ± 1.47 | 69.3 ± 1.38 | 76.2 ± 1.01 | 84.4 ± 1.36 | 198 | 62 | 50.51 ± 1.19 | 60.20 ± 3.05 | 71.44 ± 2.11 | 77.15 ± 1.06 | 86.07 ± 1.43 | 60 | 51.02 ± 1.30 | 61.75 ± 1.78 | inhibition at 125 µg/mL ([4]; 125 μg/mL, n = 3, read-out: Percent AChE (Mean ± SEM), %inhibition): 61.2 ± 1.71%; DPPH Percent Inhibition (Mean ± S.E.M) ([6]; 250 μg/mL): 71.13 ± 1.31%; DPPH Percent Inhibition (Mean ± S.E.M) ([6]; 500 μg/mL): 78.17 ± 1.04%; DPPH Percent Inhibition (Mean ± S.E.M) ([6]; 1000 μg/mL): 86.54 ±2.16%; α-Amylase IC50 (α-amylase): 92 µg/mL; Percent Inhibition of α-Amylase (Mean ± S.E.M) (α-amylase; 62.5 μg/mL): 47.51 ± 1.19 %; Percent Inhibition of α-Amylase (Mean ± S.E.M) (α-amylase; 125 μg/mL): 56.10 ± 2.05 %; Percent Inhibition of α-Amylase (Mean ± S.E.M) (α-amylase; 250 μg/mL): 66.94 ± 1.11 %; Percent Inhibition of α-Amylase (Mean ± S.E.M) (α-amylase; 500 μg/mL): 74.25 ± 1.06 %; Percent Inhibition of α-Amylase (Mean ± S.E.M) (α-amylase; 1000 μg/mL): 79.07 ± 1.43 %
COc1ccc2c3c1O[C@H]1C[C@@H](O)C=C[C@@]31CCN(C)C2 [Galanthamine, reference compound] | – | – | – | – | – | – | – | – | – | – | – | – | – | – | – | – | – | – | – | – | inhibition at 125 µg/mL [2]: 64.4 ± 1.85%; inhibition at 500 µg/mL [2]: 85.1 ± 2.06%; inhibition at 1000 µg/mL [2]: 93.89 ± 0.81%
